Data published in US8722052B2, “Vaccinia virus protein A46 peptide and use thereof” (priority 2008, dated 2014).
Ends that are not written are not given here.

Experiments:
Mal = biological target: T1, Mal (Homo sapiens, UniProt P58753); experiment: His peptide pulldown of overexpressed Flag-Mal from HEK293_T lysates; type: binding; details: 25 μM His-peptide, Ni-agarose beads, 2 hr at 4° C.
T1 construct: expressed in transfected cells; host or cells: HEK293_T, lysed in 1% NP-40 buffer
Experimental: (§1) HEK293_T cells were seeded in 6 well plate (1.5×10^5 cells/ml) 24 hours before transfection with 1 μg/well Flag-Mal and 2 μg/well Flag-TRAM encoding plasmids. The total amount of plasmid DNA transfected into the cells was made up to […] by adding pcDNA. 24 hours post-transfection cells were lysed in 1% NP-40 lysis buffer containing 20 mM imidazole. The experimental lysates were incubated with 25 μM His-A464 peptide ((H-H-H-H-H-H-[…]) (SEQ ID NO. 66) and 40 μL of Ni-agarose beads for 2 hr at 4° C. Control samples were incubated with either beads only or beads and 25 μM His-A467 peptide (H-H-H-H-H-H-[…]) (SEQ ID NO. 67). After incubation beads were washed 5 times in lysis buffer with imidazole. Proteins were resolved by SDS-PAGE, and transferred membranes immunoblotted for Flag. Data is representative of four experiments; and
(§2) HEK293_T cells were seeded in 6 well plates (1.5×10^5 cells/ml) 24 hours before transfection. 8 μl of GeneJuice was mixed with 32 μl of serum-free DMEM (SFM) per transfection and incubated for 5 min at room temperature before adding 1 μg per transfection of Flag-Mal or 2 μg of Flag-TRAM encoding plasmid DNA. GeneJuice/SFM/DNA mixture was then incubated for 15 min at room temperature before adding to the cells. […] The signal was read using Odyssey Infrared Imaging System, LI-COR® Biosciences.

TRAM = biological target: T2, TRAM (Homo sapiens, UniProt Q86XR7); experiment: His peptide pulldown of overexpressed Flag-TRAM from HEK293_T lysates; type: binding; details: 25 μM His-peptide, Ni-agarose beads, 2 hr at 4° C.
T2 construct: expressed in transfected cells; host or cells: HEK293_T, lysed in 1% NP-40 buffer
Experimental: as §1, §2

[1] = peptide solubility (observation)
[2] = system: LPS-induced inflammatory mediators; details: Tsung et al, 2007; cited from earlier work
TLRs = experiment: TLR responses in human cells; type: cell-based
TLR4 = type: cell-based, human; details: THP-1; peptide 20 or 40 μM 1 h before 100 ng/ml LPS; 6 h
[3] = system: bacterial-induced inflammation; details: murine model; McCoy et al, 2005; cited from earlier work

T1 sequence (P58753 whole entry): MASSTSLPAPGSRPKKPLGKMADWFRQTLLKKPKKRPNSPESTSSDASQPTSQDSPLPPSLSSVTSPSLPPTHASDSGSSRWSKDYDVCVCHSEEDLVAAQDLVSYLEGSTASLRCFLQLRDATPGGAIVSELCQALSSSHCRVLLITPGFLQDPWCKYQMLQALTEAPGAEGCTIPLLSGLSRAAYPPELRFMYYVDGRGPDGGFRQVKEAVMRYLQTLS
T2 sequence (Q86XR7 whole entry): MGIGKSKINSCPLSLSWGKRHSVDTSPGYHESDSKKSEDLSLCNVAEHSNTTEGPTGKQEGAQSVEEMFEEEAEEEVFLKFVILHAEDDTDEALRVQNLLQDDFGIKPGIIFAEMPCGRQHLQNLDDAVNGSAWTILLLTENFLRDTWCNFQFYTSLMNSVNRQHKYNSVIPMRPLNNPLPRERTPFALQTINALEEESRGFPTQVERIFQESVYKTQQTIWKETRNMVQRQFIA
TLR4, sequence (O00206 24-839): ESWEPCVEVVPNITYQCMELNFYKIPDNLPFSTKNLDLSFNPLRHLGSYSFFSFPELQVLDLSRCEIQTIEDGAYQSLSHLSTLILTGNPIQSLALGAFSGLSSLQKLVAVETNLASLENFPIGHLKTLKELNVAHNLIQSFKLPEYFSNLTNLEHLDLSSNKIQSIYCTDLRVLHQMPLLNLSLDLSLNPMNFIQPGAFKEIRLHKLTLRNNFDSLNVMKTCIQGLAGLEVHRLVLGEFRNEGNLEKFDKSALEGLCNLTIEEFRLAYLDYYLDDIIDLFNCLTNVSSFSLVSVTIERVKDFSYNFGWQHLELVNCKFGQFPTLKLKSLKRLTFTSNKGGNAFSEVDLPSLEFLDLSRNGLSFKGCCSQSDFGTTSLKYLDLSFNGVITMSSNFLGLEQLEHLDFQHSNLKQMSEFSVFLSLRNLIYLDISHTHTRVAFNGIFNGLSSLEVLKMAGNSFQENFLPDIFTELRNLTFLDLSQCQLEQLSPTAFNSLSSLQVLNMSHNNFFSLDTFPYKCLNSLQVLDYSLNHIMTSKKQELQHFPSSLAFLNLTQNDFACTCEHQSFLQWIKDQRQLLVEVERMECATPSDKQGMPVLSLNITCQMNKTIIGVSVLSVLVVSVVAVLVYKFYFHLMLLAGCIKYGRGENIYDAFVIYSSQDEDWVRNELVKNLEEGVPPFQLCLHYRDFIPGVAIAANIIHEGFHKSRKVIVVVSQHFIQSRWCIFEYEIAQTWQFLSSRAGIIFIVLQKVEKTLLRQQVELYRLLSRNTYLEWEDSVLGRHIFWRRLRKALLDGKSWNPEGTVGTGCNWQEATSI
TLR4, sequence (Q9Y6Y9 17-160 partner limits assumed): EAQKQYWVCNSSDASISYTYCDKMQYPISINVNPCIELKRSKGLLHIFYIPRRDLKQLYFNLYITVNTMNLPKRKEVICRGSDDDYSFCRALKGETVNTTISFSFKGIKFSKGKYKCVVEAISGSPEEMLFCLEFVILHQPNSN

With “H-H-H-H-H-H-KYSFKLILAEY (HHHHHHKYSFKLILAEY) [His-A464]” the “pulldown of overexpressed Mal” value (Mal) was “capable of pulling down overexpressed Mal or TRAM” and the “pulldown of overexpressed TRAM” value (TRAM) was “capable of pulling down overexpressed Mal or TRAM”.

With H-H-H-H-H-H-RNTISGNIYSA [His-A467] the “pulldown of overexpressed Mal” value (Mal) was “not” and the “pulldown of overexpressed TRAM” value (TRAM) was “not”.

With “KYSFKLILAAYRRRRRRRRR [Peptide E10A, KYSFKLILAAY-9R]” the “solubility of the peptide” value [1] was “insoluble”.

In the case of “P13 (DIVKLTVYDCIRRRRRRRRR) [Peptide P13]”, the “reduction of LPS-induced inflammatory mediators in mice” value [2] is listed as “can reduce”, the “ability to block TLR responses in human cells” value (TLRs) is listed as “unable to block TLR responses in human cells” and the “inhibition of LPS-induced TNFα production” value (TLR4) is listed as “even at a high dose of 40 μM, was ineffective at inhibiting TLR4”. For the same substance, the “reduction of in vivo bacterial-induced inflammation” value [3] was “can reduce”.
